Test results published in PubChem BioAssay (NCI).
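Five compound concentrations were applied to cells in 96-well plates for 48 hours; endpoints were derived by simple linear interpolation of the resulting dose-response curve. TGI is the concentration that stops growth completely.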

Columns and labels:
Assay in all cases: inhibition of tumour cell growth, NCI panel, 48 h
[1] = system: SK-OV-3 ovarian
[2] = system: SF-295 CNS
[3] = system: M14 melanoma
[4] = system: SR leukemia
[5] = system: EKVX NSCLC
[6] = system: MALME-3M melanoma
[7] = system: CCRF-CEM leukemia
[8] = system: SF-539 CNS
[9] = system: LOX IMVI melanoma
[10] = system: MOLT-4 leukemia
[11] = system: SNB-78 CNS
[12] = system: COLO 205 colon
[13] = system: CAKI-1 renal
[14] = system: IGROV1 ovarian
[15] = system: RPMI-8226 leukemia
[16] = system: M19-MEL melanoma
[17] = system: A549 NSCLC
[18] = system: OVCAR-5 ovarian
[19] = system: HCT-15 colon
[20] = system: DLD-1 colon
[21] = system: NCI-H23 lung
[22] = system: UO-31 renal
[23] = system: UACC-257 melanoma
[24] = system: DMS 114 small cell lung
[25] = system: SNB-75 CNS
[26] = system: OVCAR-8 ovarian
[27] = system: U251 CNS
[28] = system: SNB-19 CNS
[29] = system: 786-0 renal
[30] = system: LXFL 529 NSCLC
[31] = system: HT29 colon
[32] = system: OVCAR-3 ovarian
[33] = system: SK-MEL-28 melanoma
[34] = system: SN12C renal
[35] = system: HCT-116 colon
[36] = system: HCC-2998 colon
[37] = system: NCI-H522 lung
[38] = system: XF 498 CNS
[39] = system: DMS 273 small cell lung
[40] = system: NCI-H460 lung
[41] = system: KM20L2 colon
[42] = system: OVCAR-4 ovarian
[43] = system: KM12 colon
[44] = system: HOP-62 NSCLC
[45] = system: SF-268 CNS
[46] = system: K-562 leukemia
[47] = system: UACC-62 melanoma
[48] = system: SK-MEL-5 melanoma
[49] = system: NCI-H226 lung
[50] = system: SK-MEL-2 melanoma
[51] = system: SW-620 colon
[52] = system: A498 renal
[53] = system: HL-60(TB) leukemia
[54] = system: TK-10 renal
[55] = system: ACHN renal
[56] = system: RXF 393 renal
[57] = system: HOP-92 NSCLC

CC1(C)CC(/C=C2/OC(=O)c3ccccc32)=C(C(N)=O)C(=O)O1
TGI [1]: > 100 µM
TGI [2]: > 100 µM
TGI [3]: > 100 µM
TGI [4]: > 100 µM
TGI [5]: > 100 µM
TGI [6]: > 100 µM
TGI [7]: > 100 µM
TGI [8]: > 100 µM
TGI [9]: > 100 µM
TGI [10]: > 100 µM
TGI [11]: > 100 µM
TGI [12]: > 100 µM
TGI [13]: > 100 µM
TGI [14]: > 100 µM
TGI [15]: > 100 µM
TGI [16]: > 100 µM
TGI [17]: > 100 µM
TGI [18]: > 100 µM
TGI [19]: > 100 µM
TGI [20]: > 100 µM
TGI [21]: > 100 µM
TGI [22]: > 100 µM
TGI [23]: > 100 µM
TGI [24]: > 100 µM
TGI [25]: > 100 µM
TGI [26]: > 100 µM
TGI [27]: > 100 µM
TGI [28]: > 100 µM
TGI [29]: > 100 µM
TGI [30]: > 100 µM
TGI [31]: > 100 µM
TGI [32]: > 100 µM
TGI [33]: > 100 µM
TGI [34]: > 100 µM
TGI [35]: > 100 µM
TGI [36]: > 100 µM
TGI [37]: > 100 µM
TGI [38]: > 100 µM
TGI [39]: > 100 µM
TGI [40]: > 100 µM
TGI [41]: > 100 µM
TGI [42]: > 100 µM
TGI [43]: > 100 µM
TGI [44]: > 100 µM
TGI [45]: > 100 µM
TGI [46]: > 100 µM
TGI [47]: > 100 µM
TGI [48]: > 100 µM
TGI [49]: > 100 µM
TGI [50]: > 100 µM
TGI [51]: > 100 µM

CC12C=C[C@]3(CC[C@@H]4[C@@](C)(CO)CCC[C@]4(C)C3CC1)C2 (some centres undefined)
TGI [1]: 33.2 µM
TGI [2]: 34.1 µM
TGI [3]: 29.9 µM
TGI [4]: 37 µM
TGI [5]: > 55.8 µM
TGI [52]: 37.7 µM
TGI [6]: 47.6 µM
TGI [7]: 46.9 µM
TGI [8]: 30.5 µM
TGI [9]: 30.7 µM
TGI [10]: > 60.4 µM
TGI [11]: 36.7 µM
TGI [12]: 30.6 µM
TGI [13]: 26.2 µM
TGI [14]: 33 µM
TGI [15]: 41.6 µM
TGI [16]: 35.7 µM
TGI [17]: 36.7 µM
TGI [18]: 10.6 µM
TGI [19]: 31.1 µM
TGI [21]: 33.4 µM
TGI [22]: 32.2 µM
TGI [53]: 36.8 µM
TGI [23]: 33.6 µM
TGI [24]: 31.7 µM
TGI [26]: 41.2 µM
TGI [27]: 30.9 µM
TGI [28]: 36.2 µM
TGI [29]: 30 µM
TGI [30]: 30.8 µM
TGI [31]: 32.2 µM
TGI [32]: 33.2 µM
TGI [33]: 35.6 µM
TGI [54]: 34.7 µM
TGI [34]: 34.4 µM
TGI [35]: 31.9 µM
TGI [37]: 16.6 µM
TGI [55]: 32 µM
TGI [56]: 27.3 µM
TGI [38]: 35.3 µM
TGI [39]: 29.6 µM
TGI [40]: 40.1 µM
TGI [41]: 1.68 µM
TGI [42]: 26.7 µM
TGI [43]: > 64 µM
TGI [57]: > 65 µM
TGI [44]: 19.9 µM
TGI [45]: 35.4 µM
TGI [46]: 37.5 µM
TGI [47]: 29.3 µM
TGI [49]: 14.4 µM
TGI [50]: 43.2 µM
TGI [51]: 33.8 µM
